{"source": "paper PMC11233931", "about": "“Remodeling tumor‐associated macrophage for anti‐cancer effects by rational design of irreversible inhibition of mitogen‐activated protein kinase‐activated protein kinase 2” (MedComm, 2024)", "key": {"[1]": {"assay": "Cell viability assay (CCK-8), H1437", "type": "cell-based", "conditions": "H1437 cells (non-small cell lung carcinoma), H1437, human non-small cell lung carcinoma, read-out: IC50 (μM) mean ± SD, cytotoxicity", "protocol": "(§1) In cellular experiments, cells are seeded into either 6-well or 96-well plates and incubated overnight, proceeding with treatments as described in the figure legends or methods section. The cell inoculation numbers are outlined as follows: For assays measuring cell viability, between 3,000 to 5,000 cells are seeded per well in 96-well plates. For other cellular assays, the seeding density ranges from 5×10^5 to 1×10^6 cells per well in 6-well plates.\n(§2) Cells was plated into 96-well plates and incubated overnight prior to introduction of varying concentrations of compounds or control solvent. Following a 72-hour exposure period, cell viability was determined using a Cell Counting Kit-8 assay (Life-iLab, China). Dose-response curves were fitted using a four-parameter method facilitated by SoftMax Pro, which was subsequently used for the computation of IC50 values."}, "[2]": {"assay": "Cell viability assay (CCK-8), MIA Paca-2", "type": "cell-based", "conditions": "MIA Paca-2 cells (pancreatic carcinoma), MIA Paca-2, human pancreatic carcinoma, read-out: IC50 (μM) mean ± SD, cytotoxicity", "protocol": "as §1, §2"}, "[3]": {"assay": "Cell viability assay (CCK-8), HCC44", "type": "cell-based", "conditions": "HCC44 cells (non-small cell lung carcinoma), HCC44, human non-small cell lung carcinoma, read-out: IC50 (μM) mean ± SD, cytotoxicity", "protocol": "as §1, §2"}, "[4]": {"target": "T1, 380 human recombinant protein kinases (Homo sapiens, UniProt P11802)", "T1 construct": "purchased Eurofins (Celle Lévescault)", "T1 sequence (P11802 whole entry)": "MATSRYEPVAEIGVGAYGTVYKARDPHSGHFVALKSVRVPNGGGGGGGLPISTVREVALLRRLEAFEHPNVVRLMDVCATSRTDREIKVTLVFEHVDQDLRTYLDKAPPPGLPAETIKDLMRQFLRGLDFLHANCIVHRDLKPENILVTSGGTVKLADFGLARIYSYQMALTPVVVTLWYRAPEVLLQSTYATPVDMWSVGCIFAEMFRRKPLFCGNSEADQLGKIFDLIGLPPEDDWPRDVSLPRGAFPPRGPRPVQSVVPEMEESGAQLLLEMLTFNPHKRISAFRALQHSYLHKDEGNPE", "assay": "Eurofins kinase selectivity profile against 380 other human recombinant kinases (Table S2)", "type": "biochemical", "conditions": "CDK4/cyclinD3(h), read-out: Inhibition rate", "protocol": "(§3) Subsequently, to ascertain whether the high potency of compound 11 was specific for MK2, an additional 380 human recombinant protein kinases were screened.\n(§4) To assess the impact of various compounds on MK2 kinase activity, we utilized the ADP‐Glo Assay Kit (Promega) following the manufacturer's instructions. Luminescence measurements were taken using a SpectraMax Paradigm reader. The inhibition percentage was calculated using the following formula: ((specific signalDMSO control − specific signal inhibitor)/(specific signalDMSO control)) × 100%. The IC50 values were determined employing dose–response curve fitting via Prism (Graph Pad). Additionally, Eurofins company (Celle Lévescault) conducted the analysis on compound 11’s inhibitory activity against 380 other human recombinant kinases at various concentrations."}, "[5]": {"target": "T2, 380 human recombinant protein kinases (Homo sapiens, UniProt Q8IY84)", "T2 construct": "purchased Eurofins (Celle Lévescault)", "T2 sequence (Q8IY84 whole entry)": "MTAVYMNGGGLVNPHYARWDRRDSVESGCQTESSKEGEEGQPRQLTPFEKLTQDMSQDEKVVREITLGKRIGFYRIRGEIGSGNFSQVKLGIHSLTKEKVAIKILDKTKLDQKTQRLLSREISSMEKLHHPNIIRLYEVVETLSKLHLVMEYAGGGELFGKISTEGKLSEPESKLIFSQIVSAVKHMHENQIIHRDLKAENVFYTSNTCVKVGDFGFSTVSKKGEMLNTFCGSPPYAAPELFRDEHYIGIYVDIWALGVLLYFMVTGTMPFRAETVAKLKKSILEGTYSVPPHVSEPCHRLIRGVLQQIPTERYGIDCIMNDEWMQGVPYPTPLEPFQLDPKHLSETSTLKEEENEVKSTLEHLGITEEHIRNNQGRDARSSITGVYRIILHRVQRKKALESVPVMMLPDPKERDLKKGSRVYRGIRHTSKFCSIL", "assay": "Eurofins kinase selectivity profile against 380 other human recombinant kinases (Table S2)", "type": "biochemical", "conditions": "NIM1(h), read-out: Inhibition rate", "protocol": "as §3, §4"}, "[6]": {"target": "T3, 380 human recombinant protein kinases (Homo sapiens, UniProt P07333)", "T3 construct": "purchased Eurofins (Celle Lévescault)", "T3 sequence (P07333 20-972)": "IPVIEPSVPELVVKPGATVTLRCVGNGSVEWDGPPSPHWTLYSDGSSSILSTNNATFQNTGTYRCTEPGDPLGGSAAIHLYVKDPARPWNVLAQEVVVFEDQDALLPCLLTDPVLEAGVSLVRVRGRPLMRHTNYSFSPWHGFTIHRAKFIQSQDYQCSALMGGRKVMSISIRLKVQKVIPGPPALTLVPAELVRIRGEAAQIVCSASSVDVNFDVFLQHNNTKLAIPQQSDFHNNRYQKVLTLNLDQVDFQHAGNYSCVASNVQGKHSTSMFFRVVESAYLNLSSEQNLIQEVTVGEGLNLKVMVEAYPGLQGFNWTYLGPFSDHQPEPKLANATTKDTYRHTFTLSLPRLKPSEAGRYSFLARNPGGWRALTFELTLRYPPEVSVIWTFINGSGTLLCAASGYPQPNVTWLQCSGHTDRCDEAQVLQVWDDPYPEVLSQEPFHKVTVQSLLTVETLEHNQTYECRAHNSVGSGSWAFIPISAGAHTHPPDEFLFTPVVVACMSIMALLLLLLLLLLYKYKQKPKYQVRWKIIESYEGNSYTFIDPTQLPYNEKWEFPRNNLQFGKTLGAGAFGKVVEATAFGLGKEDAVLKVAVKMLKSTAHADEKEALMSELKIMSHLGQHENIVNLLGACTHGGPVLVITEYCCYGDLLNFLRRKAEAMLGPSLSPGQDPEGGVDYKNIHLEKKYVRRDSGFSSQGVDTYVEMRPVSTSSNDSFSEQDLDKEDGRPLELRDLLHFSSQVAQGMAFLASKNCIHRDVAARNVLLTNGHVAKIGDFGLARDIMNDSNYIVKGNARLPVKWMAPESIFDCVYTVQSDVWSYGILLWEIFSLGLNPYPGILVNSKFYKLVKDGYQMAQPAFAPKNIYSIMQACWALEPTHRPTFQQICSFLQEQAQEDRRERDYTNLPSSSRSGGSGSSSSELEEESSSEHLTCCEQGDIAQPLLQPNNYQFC", "assay": "Eurofins kinase selectivity profile against 380 other human recombinant kinases (Table S2)", "type": "biochemical", "conditions": "Fms(h), read-out: Inhibition rate", "protocol": "as §3, §4"}, "[7]": {"target": "T4, 380 human recombinant protein kinases (Homo sapiens, UniProt Q13315)", "T4 construct": "purchased Eurofins (Celle Lévescault)", "assay": "Eurofins kinase selectivity profile against 380 other human recombinant kinases (Table S2)", "type": "biochemical", "conditions": "ATM(h), read-out: Inhibition rate (%)", "protocol": "as §3, §4"}, "[8]": {"target": "T5, 380 human recombinant protein kinases (Homo sapiens, UniProt P51812)", "T5 construct": "purchased Eurofins (Celle Lévescault)", "T5 sequence (P51812 whole entry)": "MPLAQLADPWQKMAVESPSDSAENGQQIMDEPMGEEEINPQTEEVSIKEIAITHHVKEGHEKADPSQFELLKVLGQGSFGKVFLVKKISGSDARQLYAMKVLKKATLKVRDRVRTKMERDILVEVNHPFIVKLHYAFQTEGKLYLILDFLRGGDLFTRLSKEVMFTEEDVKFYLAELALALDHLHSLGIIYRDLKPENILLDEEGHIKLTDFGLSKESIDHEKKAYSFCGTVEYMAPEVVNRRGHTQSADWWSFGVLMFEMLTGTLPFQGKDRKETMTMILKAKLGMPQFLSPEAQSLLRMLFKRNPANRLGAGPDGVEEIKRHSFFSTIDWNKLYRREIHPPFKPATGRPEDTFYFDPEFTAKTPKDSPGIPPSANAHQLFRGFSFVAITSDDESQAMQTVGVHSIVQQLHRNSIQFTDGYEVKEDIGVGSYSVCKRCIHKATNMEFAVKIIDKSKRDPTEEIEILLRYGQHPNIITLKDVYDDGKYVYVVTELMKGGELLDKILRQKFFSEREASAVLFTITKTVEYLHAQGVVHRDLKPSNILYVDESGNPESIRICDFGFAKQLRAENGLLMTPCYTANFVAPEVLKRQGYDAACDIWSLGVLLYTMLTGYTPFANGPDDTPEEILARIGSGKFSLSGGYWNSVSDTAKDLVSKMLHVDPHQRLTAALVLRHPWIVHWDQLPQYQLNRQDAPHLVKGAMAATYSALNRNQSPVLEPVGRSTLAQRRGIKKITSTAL", "assay": "Eurofins kinase selectivity profile against 380 other human recombinant kinases (Table S2)", "type": "biochemical", "conditions": "Rsk2(h), read-out: Inhibition rate (%)", "protocol": "as §3, §4"}, "[9]": {"target": "T6, 380 human recombinant protein kinases (Homo sapiens, UniProt P07332)", "T6 construct": "purchased Eurofins (Celle Lévescault)", "T6 sequence (P07332 whole entry)": "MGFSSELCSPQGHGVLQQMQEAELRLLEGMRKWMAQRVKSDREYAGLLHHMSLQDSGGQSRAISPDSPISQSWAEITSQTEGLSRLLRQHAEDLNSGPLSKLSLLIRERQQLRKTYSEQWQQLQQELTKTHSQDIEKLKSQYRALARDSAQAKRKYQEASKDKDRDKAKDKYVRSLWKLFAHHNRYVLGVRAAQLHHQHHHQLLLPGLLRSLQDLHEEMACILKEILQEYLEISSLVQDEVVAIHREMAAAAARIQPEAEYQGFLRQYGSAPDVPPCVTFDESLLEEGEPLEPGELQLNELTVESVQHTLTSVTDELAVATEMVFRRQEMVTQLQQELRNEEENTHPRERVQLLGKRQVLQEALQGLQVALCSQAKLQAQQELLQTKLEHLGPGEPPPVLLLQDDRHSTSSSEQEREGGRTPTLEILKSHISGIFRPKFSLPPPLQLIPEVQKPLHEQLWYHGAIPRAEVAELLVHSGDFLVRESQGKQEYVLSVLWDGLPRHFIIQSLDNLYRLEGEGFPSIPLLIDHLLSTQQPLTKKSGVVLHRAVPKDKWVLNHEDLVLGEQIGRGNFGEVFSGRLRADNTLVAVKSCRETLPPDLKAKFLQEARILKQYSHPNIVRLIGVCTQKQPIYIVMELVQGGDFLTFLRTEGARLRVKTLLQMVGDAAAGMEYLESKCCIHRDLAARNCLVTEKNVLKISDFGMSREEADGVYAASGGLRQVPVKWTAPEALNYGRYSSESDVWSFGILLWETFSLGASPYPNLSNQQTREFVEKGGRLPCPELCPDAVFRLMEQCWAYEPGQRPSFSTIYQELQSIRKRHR", "assay": "Eurofins kinase selectivity profile against 380 other human recombinant kinases (Table S2)", "type": "biochemical", "conditions": "Fes(h), read-out: Inhibition rate", "protocol": "as §3, §4"}, "[10]": {"target": "T7, 380 human recombinant protein kinases (Homo sapiens, UniProt Q9UM73)", "T7 construct": "purchased Eurofins (Celle Lévescault)", "T7 sequence (Q9UM73 19-1620)": "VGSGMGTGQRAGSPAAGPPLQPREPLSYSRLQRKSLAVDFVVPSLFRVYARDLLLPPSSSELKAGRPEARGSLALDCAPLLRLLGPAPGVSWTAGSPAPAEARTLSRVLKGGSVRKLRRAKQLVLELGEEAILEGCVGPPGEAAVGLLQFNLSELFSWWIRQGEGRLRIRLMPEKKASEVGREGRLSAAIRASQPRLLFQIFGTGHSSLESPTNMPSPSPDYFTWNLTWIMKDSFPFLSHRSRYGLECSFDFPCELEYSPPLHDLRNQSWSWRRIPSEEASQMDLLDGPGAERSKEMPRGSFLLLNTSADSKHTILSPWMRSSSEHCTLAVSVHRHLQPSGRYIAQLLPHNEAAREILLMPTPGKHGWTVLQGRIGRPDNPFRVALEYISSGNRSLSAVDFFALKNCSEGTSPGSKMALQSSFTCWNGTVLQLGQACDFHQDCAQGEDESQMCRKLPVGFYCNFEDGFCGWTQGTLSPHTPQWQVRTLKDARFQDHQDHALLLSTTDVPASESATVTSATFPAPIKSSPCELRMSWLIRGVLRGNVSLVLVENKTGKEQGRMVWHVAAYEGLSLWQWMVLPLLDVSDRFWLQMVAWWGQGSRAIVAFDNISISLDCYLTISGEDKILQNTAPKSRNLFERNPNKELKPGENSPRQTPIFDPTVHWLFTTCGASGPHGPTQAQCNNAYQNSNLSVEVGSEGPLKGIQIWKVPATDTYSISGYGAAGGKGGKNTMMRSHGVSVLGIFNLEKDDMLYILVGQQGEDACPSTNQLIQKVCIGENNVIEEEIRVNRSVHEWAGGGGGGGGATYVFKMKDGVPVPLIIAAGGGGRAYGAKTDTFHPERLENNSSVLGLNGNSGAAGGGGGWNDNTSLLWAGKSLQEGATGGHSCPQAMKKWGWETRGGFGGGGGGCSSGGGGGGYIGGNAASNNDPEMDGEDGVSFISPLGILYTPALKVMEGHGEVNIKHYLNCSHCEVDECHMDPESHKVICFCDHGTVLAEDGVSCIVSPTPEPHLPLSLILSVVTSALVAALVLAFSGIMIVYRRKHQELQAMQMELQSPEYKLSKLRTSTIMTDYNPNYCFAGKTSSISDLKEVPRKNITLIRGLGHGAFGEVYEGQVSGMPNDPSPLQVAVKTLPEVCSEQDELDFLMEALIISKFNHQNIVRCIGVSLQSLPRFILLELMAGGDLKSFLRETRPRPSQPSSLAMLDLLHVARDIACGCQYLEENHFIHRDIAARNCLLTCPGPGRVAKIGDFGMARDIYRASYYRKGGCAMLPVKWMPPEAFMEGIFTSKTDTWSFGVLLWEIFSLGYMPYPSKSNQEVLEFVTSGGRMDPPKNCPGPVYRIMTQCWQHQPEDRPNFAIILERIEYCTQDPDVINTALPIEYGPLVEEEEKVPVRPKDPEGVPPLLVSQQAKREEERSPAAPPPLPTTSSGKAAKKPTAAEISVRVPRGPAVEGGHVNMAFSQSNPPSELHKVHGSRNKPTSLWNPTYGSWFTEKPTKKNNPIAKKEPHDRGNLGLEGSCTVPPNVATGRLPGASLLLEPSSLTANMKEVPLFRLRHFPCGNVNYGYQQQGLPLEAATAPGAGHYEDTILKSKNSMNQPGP", "assay": "Eurofins kinase selectivity profile against 380 other human recombinant kinases (Table S2)", "type": "biochemical", "conditions": "ALK(h), read-out: Inhibition rate", "protocol": "as §3, §4"}, "[11]": {"tested_on": "TNF-α, IL-6 and IL-1β mRNA in RAW264.7 macrophage cell line", "assay": "RT-PCR of cytokine mRNA in LPS-stimulated RAW264.7 macrophages", "type": "cell-based, mouse", "conditions": "3 h pre-treatment, LPS 100 ng/mL 3 h", "text": "MK2 is recognized for inducing the production of pathological cytokines that fuel inflammation, including IL‐6, TNF‐α, and IL‐1β. These cytokines are the classic downstream target gene of MK2 and are identified as significant contributors to the risk of inflammation‐driven cancer,[34], [35], [36] such as colorectal cancer and hepatocellular carcinoma. Therefore, we assessed the transcriptional levels of these typical downstream cytokines in human monocytic THP‐1 cell‐line‐derived macrophage and the mouse RAW264.7 macrophage cell line under the influence of compound 11. […] Taken together, our findings corroborate that compound 11 effectively impedes the transcription and production of these key MK2 downstream pro‐inflammatory cytokines.\nFIGURE 4 Targeting cellular MK2 signaling with irreversible inhibition by compound 11. […] (C) The inhibitory effects of compound 11 on TNF‐α and IL‐6 production in LPS‐stimulated RAW264.7 macrophages for 24 h, measured by ELISA. […]\nTotal RNA was extracted from cultured cells using the EZ‐press RNA Purification Kit (EZBioscience). Complementary DNA was synthesized using the ABScript III RT Master Mix for qPCR with gDNA remover (ABclonal Technology) and was quantified with primers listed in Table S5. The relative mRNA expression levels were quantified through qPCR using the SYBR green gene expression assay (ABclonal Technology)."}}, "data": [{"compound": "C=CC(=O)Nc1cc(-c2cc(-c3cc4c([nH]3)CCNC4=O)ccn2)ccc1OC(F)(F)F", "note": "[compound 11]", "values": [{"measurement": "IC50 at 72 h", "setting": "[1]", "result": "33.4 ± 0.6", "unit": "µM"}, {"measurement": "IC50 at 72 h", "setting": "[2]", "result": "47.8 ± 2.8", "unit": "µM"}, {"measurement": "IC50 at 72 h", "setting": "[3]", "result": "32.3 ± 3.3", "unit": "µM"}, {"measurement": "inhibition at 0.01 µM", "setting": "[4]; 10 nM", "result": 3, "unit": "%"}, {"measurement": "inhibition at 0.1 µM", "setting": "[4]; 100 nM", "result": 0, "unit": "%"}, {"measurement": "inhibition at 1 µM", "setting": "[4]; 1000 nM", "result": 2, "unit": "%"}, {"measurement": "inhibition at 0.01 µM", "setting": "[5]; 10 nM", "result": -4, "unit": "%"}, {"measurement": "inhibition at 0.1 µM", "setting": "[5]; 100 nM", "result": -7, "unit": "%"}, {"measurement": "inhibition at 1 µM", "setting": "[5]; 1000 nM", "result": -3, "unit": "%"}, {"measurement": "inhibition at 0.01 µM", "setting": "[6]; 10 nM", "result": -8, "unit": "%"}, {"measurement": "inhibition at 0.1 µM", "setting": "[6]; 100 nM", "result": -9, "unit": "%"}, {"measurement": "inhibition at 1 µM", "setting": "[6]; 1000 nM", "result": -6, "unit": "%"}, {"measurement": "inhibition at 0.01 µM", "setting": "[7]; 10 nM", "result": -3, "unit": "%"}, {"measurement": "inhibition at 0.1 µM", "setting": "[7]; 100 nM", "result": -6, "unit": "%"}, {"measurement": "inhibition at 1 µM", "setting": "[7]; 1000 nM", "result": -9, "unit": "%"}, {"measurement": "inhibition at 0.01 µM", "setting": "[8]; 10 nM", "result": -6, "unit": "%"}, {"measurement": "inhibition at 0.1 µM", "setting": "[8]; 100 nM", "result": -11, "unit": "%"}, {"measurement": "inhibition at 1 µM", "setting": "[8]; 1000 nM", "result": -3, "unit": "%"}, {"measurement": "inhibition at 0.01 µM", "setting": "[9]; 10 nM", "result": -7, "unit": "%"}, {"measurement": "inhibition at 0.1 µM", "setting": "[9]; 100 nM", "result": -5, "unit": "%"}, {"measurement": "inhibition at 1 µM", "setting": "[9]; 1000 nM", "result": 0, "unit": "%"}, {"measurement": "inhibition at 0.01 µM", "setting": "[10]; 10 nM", "result": 6, "unit": "%"}, {"measurement": "inhibition at 0.1 µM", "setting": "[10]; 100 nM", "result": 6, "unit": "%"}, {"measurement": "inhibition at 1 µM", "setting": "[10]; 1000 nM", "result": 16, "unit": "%"}, {"measurement": "effect on LPS-induced TNF-α, IL-6 and IL-1 mRNA expression", "setting": "[11]", "result": "significantly inhibited"}]}]}
